{
  "source": "patent US5326898A",
  "about": "“Substituted phenylethenyl compounds having retinoid-like biological activity” (Allergan, Inc., priority 1992, dated 1994)",
  "origin": "cited, not measured here",
  "system": "ornithine decarboxylase (ODC)",
  "conditions": "qualitative; background statement on retinoic acid",
  "data": [
    {"molecule": "CC1=C(/C=C/C(C)=C/C=C/C(C)=C/C(=O)O)C(C)(C)CCC1", "note": "[Retinoic acid]", "values": [
      {"measurement": "inhibition of induction of ODC activity by TPA", "result": "inhibits"}
    ]}
  ]
}
